The values that follow come from patent US20250144049A1, “METHODS, COMPOSITIONS, AND USES RELATED TO THE TREATMENT AND PREVENTION OF LEIGH SYNDROME” (Stealth BioTherapeutics Inc., priority 2023, published 2025).

Holding throughout (type): cell-based, human
The test system of assay [1] is Leigh (GM03672) fibroblasts. Description: Erastin cytoprotection assay, Leigh fibroblasts. To be noted: 2 μM erastin, 24 hours, FIG. 13. The method, then: (§1) Briefly, Healthy (GM08402) or Leigh (GM03672) fibroblasts were resuspended in assay medium, seeded at 10,000 cells per well in a clear, tissue cultured-treated, 96-well plate, and incubated at 37° C. overnight. Following the incubation, supernatant was manually aspirated from wells, taking care not to disrupt cells. Fibroblasts were co-treated in a final volume of 100 μL with 2 μM erastin (Millipore Corp., Cat #), 250 μM ferric ammonium citrate (FAC), 50 µM ascorbic acid (AA), and a titration of one of each of Compounds 1 to 4 or Vatiquinone ranging from 10 to 1000 nM. Following another 24-hour incubation at 37° C., cell viability was measured using the CellTiter-Glo Luminescent Cell Viability Kit (ProMega) per Manufacturer's instructions. Luminescence units were quantified by GEN5 software on a BioTek SYNERGY neo2 plate reader (LUM filter).
(§2) Briefly, erastin, like RSL3, is known to induce ferroptosis. […] Erastin was incubated with cell fibroblasts for 24 hours to induce ferroptosis. Cells were co-treated with each of Compounds 1 to 4, or Vatiquinone as the test articles. Test articles were administered at a range of concentrations to derive a curve. Cell viability was determined using a commercially available kit that measures ATP production. […] An increase in cell viability as determined by the assay is considered to be protective against ferroptosis.

The subject of assay [2] is Healthy (GM08402) fibroblasts. Kind of assay: Erastin cytoprotection assay, healthy fibroblasts. The conditions noted are these: 2 μM erastin, 24 hours, FIG. 12. The procedure: as §1, §2
For assay [3], the system named is Leigh fibroblasts (GM03672). Description: Mitochondrial membrane potential (TMRM flow cytometry) in RSL3-treated Leigh fibroblasts. To be noted: 1 μM RSL3 with 1 μM compound, 4 hours. The procedure:
Leigh fibroblasts (GM03672) were seeded in a 24-well, tissue culture-treated plate in complete MEM (MEM+15% FBS+1% penicillin/streptomycin) at a density of 1×10^5 cells per 500 μL and incubated overnight at 37° C. at 5% CO2. Cells were treated for 4 hours at 37° C. with either 1 μM RSL3, 1 μM RSL3 with 1 μM Compound 3 or media for untreated cells. Following the incubation, supernatant was removed and cells were treated with 0.25% trypsin for 5 min at 37° C. Trypsin was neutralized with an equal part MEM. Cells were dislodged with gentle pipetting and pelleted at 300×g for 5 minutes. Pellets were resuspended in 500 μL Fluobrite DMEM and cells were transferred to a 96-well, v-bottom plate. Cells were stained with 20 nM MitoTracker Green and 100 nM tetramethylrhodamine methyl ester (TMRM) Samples were incubated for 25 minutes at 37° C. Each well was mixed immediately prior to analysis to resuspend settled cells. Fluorescence intensity was measured on the BD Accuri C6 Plus Flow Cytometer. A minimum of 10,000 events per sample was collected. Data analysis was performed using FloJo vs. 10. Gating was performed by establishing an initial forward scatter vs. side scatter gate. […] Median fluorescence intensity (MFI) of TMRM fluorescence was determined. Using GraphPad Prism 10, statistical significance between groups was determined by One-way ANOVA. […]

Assay [4] relates to 15-lipoxygenase (15-LO). Kind of assay: 15(S)-HETE ELISA following RSL3 treatment, Leigh fibroblasts. To be noted: 700 nM RSL3, 1 μM compound, FIG. 11. The method, then:
(§3) Samples for the 15(S)-HETE ELISA were generated by the RSL3 cytoprotection assay described above. Healthy or Leigh fibroblasts were resuspended in assay medium, seeded at 200,000 cells per well in a clear, tissue culture-treated, 24-well plate. Cells were incubated at 37° C. for 24 hours. Supernatant was aspirated from each well following the incubation.
(§4) Fibroblasts from both a healthy individual and a patient diagnosed with Leigh syndrome were examined (but not all compounds were examined in each cell type). Activation of ferroptosis has been implicated as a driver of epilepsy, which is commonly associated with Leigh syndrome. […] Kahn-Kirby et al. PLOS One. […] As a key regulator of ferroptosis, 15-LO serves as a rational therapeutic target in Leigh syndrome.

In assay [5] the test system is 15-lipoxygenase (15-LO). Kind of assay: 15(S)-HETE ELISA following RSL3 treatment, healthy fibroblasts. To be noted: 700 nM RSL3, 1 μM compound, FIG. 10; for inhibition of 15-lipoxygenase (15(S)-HETE in supernatant): 24 hours. The method, then: as §3, §4

`CC1=C(C)C(=O)C(CC[C@@](C)(O)COCCC[Si](C)(C)C)=C(C)C1=O` [Compound 3]: the “protective effect compared among test articles” value in assay [1] is “superior in their protective effect”. Besides, the “protective effect compared among test articles” value in assay [2] is given as “superior in their protective effect”. Besides, in assay [3], the “protection from loss of mitochondrial membrane potential (TMRM MFI)” value is on record as “protective”. In the assay with 15-lipoxygenase (15-LO) [4], the “15-LO inhibition compared among test articles” value is recorded as “roughly equivalent protective effect”. Moreover, in the assay on 15-lipoxygenase (15-LO) [5], the “inhibition of 15-lipoxygenase (15(S)-HETE in supernatant)” value is given as “inhibited 15-lipoxygenase”; the “15-lipoxygenase inhibition compared among test articles” value is “superior to Compounds 2, 4 and Vatiquinone”.
Regarding `CC1=C(C)C(=O)C(CC[C@](C)(O)CCCCCCCCC(F)(F)F)=C(C)C1=O` [Compound 4], the “protective effect compared among test articles” value in assay [1] and in assay [2] was “about equally protective” in each case. Also, in assay [3], the “protection from loss of mitochondrial membrane potential (TMRM MFI)” value is reported as “protective”. Also, the “15-LO inhibition compared among test articles” value with 15-lipoxygenase (15-LO) [4] was “roughly equivalent protective effect”. Moreover, in the assay on 15-lipoxygenase (15-LO) [5], the “inhibition of 15-lipoxygenase (15(S)-HETE in supernatant)” value is “inhibited 15-lipoxygenase”. Moreover, in the assay on 15-lipoxygenase (15-LO) [5], the “15-lipoxygenase inhibition compared among test articles” value is recorded as “roughly equivalent protective effect”.
